# Results published in ChEMBL document CHEMBL1123774, “Peptide quantitative structure-activity relationships, a multivariate approach” (J Med Chem, 1987).
# Peptide text beside a SMILES is read from it.
# Assay: Bradykinin potentiating activity was determined as the activity index by PLS model
row,Compound,Log RAI
1,C[C@H](N)C(=O)N[C@@H](C)C(=O)N[C@@H](Cc1c[nH]c2ccccc12)C(=O)N[C@@H](C)C(=O)N[C@@H](C)C(=O)O (H-AAWAA-OH),0.75
2,CC(C)[C@H](N)C(=O)N[C@@H](CCCCN)C(=O)N[C@@H](C)C(=O)N[C@@H](C)C(=O)N[C@@H](CCCCN)C(=O)O (H-VKAAK-OH),0.11
3,C[C@H](NC(=O)[C@H](Cc1c[nH]c2ccccc12)NC(=O)[C@H](CCCCN)NC(=O)[C@@H](N)CCC(=O)O)C(=O)N1CCC[C@H]1C(=O)O (H-EKWAP-OH),1.3
4,CC(C)[C@H](N)C(=O)N[C@@H](C)C(=O)N[C@@H](C)C(=O)N[C@@H](C)C(=O)N[C@@H](CCCCN)C(=O)O (H-VAAAK-OH),-0.1
5,CC(C)[C@H](N)C(=O)N[C@@H](CCC(=O)O)C(=O)NCC(=O)NCC(=O)N[C@@H](CCCCN)C(=O)O (H-VEGGK-OH),-1
6,CC(C)[C@H](N)C(=O)N[C@@H](CCC(=O)O)C(=O)N[C@@H](CO)C(=O)N[C@@H](C)C(=O)N[C@@H](CCCCN)C(=O)O (H-VESAK-OH),0.28
7,CC(C)C[C@H](NC(=O)[C@H](CCC(=O)O)NC(=O)[C@@H](N)C(C)C)C(=O)N[C@@H](C)C(=O)N[C@@H](CCCCN)C(=O)O (H-VELAK-OH),0.59
8,CC(C)[C@H](N)C(=O)N[C@@H](CCC(=O)O)C(=O)N[C@@H](CO)C(=O)N[C@@H](CO)C(=O)N[C@@H](CCCCN)C(=O)O (H-VESSK-OH),0
9,CC(C)[C@H](N)C(=O)N[C@@H](CCC(=O)O)C(=O)N[C@@H](Cc1ccccc1)C(=O)N[C@@H](C)C(=O)N[C@@H](CCCCN)C(=O)O (H-VEFAK-OH),1.57
10,CC(C)[C@H](N)C(=O)N[C@@H](CCC(=O)O)C(=O)N[C@@H](C)C(=O)N[C@@H](CO)C(=O)N[C@@H](CCCCN)C(=O)O (H-VEASK-OH),0.2
11,C[C@H](NC(=O)[C@H](Cc1c[nH]c2ccccc12)NC(=O)[C@H](CCCCN)NC(=O)[C@@H](N)CCCN=C(N)N)C(=O)N1CCC[C@H]1C(=O)O (H-RKWAP-OH),1.98
12,CC(C)[C@H](N)C(=O)N[C@@H](C)C(=O)N[C@@H](Cc1c[nH]c2ccccc12)C(=O)N[C@@H](C)C(=O)N[C@@H](C)C(=O)O (H-VAWAA-OH),1.43
13,O=C(CNC(=O)[C@@H]1CCCN1)N[C@@H](Cc1ccccc1)C(=O)N[C@@H](CO)C(=O)N1CCC[C@H]1C(=O)O (H-PGFSP-OH),0.9

# Next, values leading:
row,Log RAI,Compound
1,0.04,CC(C)[C@H](N)C(=O)N[C@@H](Cc1c[nH]c2ccccc12)C(=O)N[C@@H](C)C(=O)N[C@@H](C)C(=O)N[C@@H](CCCCN)C(=O)O (H-VWAAK-OH)
2,0.46,C[C@H](N)C(=O)N[C@@H](C)C(=O)N[C@@H](Cc1ccc(O)cc1)C(=O)N[C@@H](C)C(=O)N[C@@H](C)C(=O)O
3,0.18,CC(C)[C@H](N)C(=O)N[C@@H](CCC(=O)O)C(=O)N[C@@H](C)C(=O)N[C@@H](C)C(=O)N1CCC[C@H]1C(=O)O (H-VEAAP-OH)
4,1.45,CC(C)[C@H](N)C(=O)N[C@@H](C)C(=O)N[C@@H](Cc1c[nH]c2ccccc12)C(=O)N[C@@H](C)C(=O)N[C@@H](CCCCN)C(=O)O (H-VAWAK-OH)
5,0.51,CC(C)[C@H](N)C(=O)N[C@@H](CCC(=O)O)C(=O)N[C@@H](C)C(=O)N[C@@H](C)C(=O)N[C@@H](CCCCN)C(=O)O (H-VEAAK-OH)
6,0.64,NC(N)=NCCC[C@H](NC(=O)[C@H](Cc1ccccc1)NC(=O)[C@@H]1CCCN1C(=O)[C@H](CO)NC(=O)[C@@H](N)Cc1ccccc1)C(=O)O (H-FSPFR-OH)
7,1.71,CC(C)[C@H](N)C(=O)N[C@@H](CCC(=O)O)C(=O)N[C@@H](Cc1c[nH]c2ccccc12)C(=O)N[C@H](C(=O)N[C@@H](CCCCN)C(=O)O)C(C)C (H-VEWVK-OH)
8,-0.1,C[C@H](N)C(=O)N[C@@H](C)C(=O)N[C@@H](C)C(=O)N[C@@H](C)C(=O)N[C@@H](C)C(=O)O
9,0.3,C[C@H](NC(=O)[C@H](C)NC(=O)[C@H](CCC(=O)O)NC(=O)[C@@H](N)Cc1ccccc1)C(=O)N[C@@H](CCCCN)C(=O)O (H-FEAAK-OH)
10,1.71,CC(C)[C@H](N)C(=O)N[C@@H](CCCCN)C(=O)N[C@@H](Cc1c[nH]c2ccccc12)C(=O)N[C@@H](C)C(=O)N[C@@H](C)C(=O)O (H-VKWAA-OH)
11,2.35,CC(C)[C@H](N)C(=O)N[C@@H](CCCCN)C(=O)N[C@@H](Cc1c[nH]c2ccccc12)C(=O)N[C@@H](C)C(=O)N1CCC[C@H]1C(=O)O (H-VKWAP-OH)
12,1.53,CC(C)[C@H](N)C(=O)N[C@@H](CCC(=O)O)C(=O)N[C@@H](Cc1c[nH]cn1)C(=O)N[C@@H](C)C(=O)N[C@@H](CCCCN)C(=O)O (H-VEHAK-OH)
13,-0.52,C[C@H](NC(=O)[C@H](C)NC(=O)[C@H](CCC(=O)O)NC(=O)CN)C(=O)N[C@@H](CCCCN)C(=O)O (H-GEAAK-OH)
14,0.4,CC(C)C[C@H](N)C(=O)N[C@@H](CCC(=O)O)C(=O)N[C@@H](C)C(=O)N[C@@H](C)C(=O)N[C@@H](CCCCN)C(=O)O (H-LEAAK-OH)
15,2.73,CC(C)[C@H](N)C(=O)N[C@@H](CCC(=O)O)C(=O)N[C@@H](Cc1c[nH]c2ccccc12)C(=O)N[C@@H](C)C(=O)N[C@@H](CCCCN)C(=O)O (H-VEWAK-OH)
16,0.23,CC(C)[C@H](N)C(=O)N[C@@H](C)C(=O)N[C@@H](C)C(=O)N[C@@H](Cc1c[nH]c2ccccc12)C(=O)N[C@@H](CCCCN)C(=O)O (H-VAAWK-OH)
